{"source": "patent US20060270643A1", "about": "“Hyfroxyflutamide induced pathways related to androgen receptor negative prostate cancer cells” (priority 2002, published 2006)", "key": {"[1]": {"tested_on": "p44/42 MAP kinase (ERK1 and 2)", "test": "Immunoblot of phosphorylated p44/42 MAP kinase in DU145 cells", "format": "cell-based, human", "protocol": "7. […] (A) DU145 cells were grown in 100 mm dishes and serum-starved for 24 hours. The cells were lysed on ice. Equal amounts of cell lysate were analyzed by 12% SDS-PAGE and subsequent immunoblotted with anti-phospho ERK1/2 and anti-ERK1/2 antibodies. (B) Different cell lines, at 70 to 80% confluence, were lysed and immunoblotted with anti-AR polyclonal antibody, NH27. (C) DU145 cells were pre-incubated with MEK1/2 inhibitor U0126, or U0124 before HF, EGF, and ethanol treatment. Cells were lysed and immunoblotted with anti-phospho ERK1/2 and anti-ERK1/2 antibodies. (D) CWR2 and (E) PC3-AR cells were grown in 100 mm dishes and serum-starved for 24 hours. The cells were treated with HF, EGF or ethanol vehicle for 15 mins and immunoblotted with anti-phospho-ERK1/2 and anti-ERK1/2 antibodies. […] MMTV-ARE-Luc reporter plasmid was cotransfected with or without pSG5AR into DU145 cells. After 18 hours, cells were treated with 1 nM DHT, 1 μM HF or both for another 18 hours, and then harvested. Cell lysates were collected and assayed for the luciferase activity.\n(§1) 9. […] After 15 min treatment, cells were lysed and immunoblotted with anti-phospho ERK1/2 and antiERK1/2 antibodies. […] EGFR was immunoprecipitated from the cell lysates, and their phosphotyrosine level was determined by anti-phosphotyrosine antibody. All the results were visualized using enhanced chemiluminescence.\n198. This assay uses a polyclonal antibody specific against the activated p44/42 MAP kinases (Cell Signaling Technology, Beverly, Mass.), which detects p44 and p42 MAP kinase (ERK1 and 2) only when catalytically activated by dual phosphorylation at Thr202 and Tyr204. DU145 cells were seeded at 1×10^5 cells per 100 mm plate and allowed to attach overnight and then the media were replaced with serum-free DMEM media for 24 hours. The cells were pre-treated with MAP kinase inhibitors, EGFR antibodies, or cycloheximide for 1 hour and followed by HF, EGF, or vehicle treatment. Cells were washed twice with PBS, harvested at indicated times, and lyzed with RIPA buffer for 30 min on ice. The protein concentrations were determined by Bradford assay, and equal amount of protein was resolved by SDS-PAGE. Gels were transferred, immunoblotted with p44/42 MAP kinase antibody (1/1000), and then incubated with secondary antibody. Proteins were visualized by the enhanced chemiluminescence system (NEN™ Life Science Products, Boston, Mass.). P44/42 MAP kinase (total ERK1/2) was blotted as a control."}, "[2]": {"tested_on": "MAP kinase in PC-3 stably transfected with AR (PC3-AR2)", "test": "Immunoblot of phospho-ERK1/2 in PC3-AR2 cells", "format": "cell-based, human", "conditions": "15 mins"}, "[3]": {"tested_on": "MAP kinase in LNCaP cells", "test": "Immunoblot of phospho-ERK1/2 in LNCaP cells", "format": "cell-based, human", "conditions": "LNCaP cells (data not shown)"}, "[4]": {"tested_on": "association between Ras and Raf", "test": "Ras-Raf immunoprecipitation assay in DU145 cells", "format": "cell-based, human", "conditions": "lysates of treated DU145 cells; 1 μM HF, 10 ng/ml EGF, 1 μM 9-cis retinoic acid", "protocol": "8. […] (A) DU145 cells were treated with ethanol (lane 1), 10 ng/ml EGF (lane 2), 1 μM 9-cis retinoic acid (lane 3), and 1 μM HF (lane 4) after 24 hour serum starvation. Cells were lysed and 300 μg of total protein were immunoprecipitated with anti-Ras antibody, pulled-down by a protein A/G agarose beads, and detected with an anti-Raf antibody. (B) DU145 cells were transfected with pCDNA3.1 or pCDNA3.1-Ras N17 as indicated. After 24 hours serum starvation, the cells were treated with different ligands for 20 min, and then harvested. Western blots were performed with antibodies against phosphoERK1/2 and ERK1/2. The density of phospho-ERK1/2 shown as Optical Density (OD) were determined by the Versa Doc Imaging System (Bio-Rad) and quantified by Quantity One software.\n200. Serum-stared and treated DU145 cells were lysed with RIPA buffer for 30 min on ice. Lysates were then centrifuiged at 12,000 g for 10 min at 4° C. and protein concentrations were determined by the Bradford assay. 500 μg of cell lysates were incubated for 4 hours with either anti-Ras or anti-EGFR antibody (1/100, Santa Cruz Biotechnology) to the protein-antibody mixture and then added in 20 μl of protein A/G plus-agarose (Santa Cruz Biotechnology) for another 4 hours incubation with constant rotation. The immunoprecipitates were washed four times with cold PBS, resolved by SDS-PAGE, and immunoblotted by anti-Raf-1 antibody, or anti-phospho-tyrosine monoclonal antibody (Oncogene Research, Calbiochem, La Jolla, Calif.). The results were visualized by chemiluminescence."}, "[5]": {"target": "T1, EGFR (Homo sapiens, UniProt P00533)", "T1 construct": "endogenous in cells; host or cells: DU145", "T1 sequence (P00533 25-1210)": "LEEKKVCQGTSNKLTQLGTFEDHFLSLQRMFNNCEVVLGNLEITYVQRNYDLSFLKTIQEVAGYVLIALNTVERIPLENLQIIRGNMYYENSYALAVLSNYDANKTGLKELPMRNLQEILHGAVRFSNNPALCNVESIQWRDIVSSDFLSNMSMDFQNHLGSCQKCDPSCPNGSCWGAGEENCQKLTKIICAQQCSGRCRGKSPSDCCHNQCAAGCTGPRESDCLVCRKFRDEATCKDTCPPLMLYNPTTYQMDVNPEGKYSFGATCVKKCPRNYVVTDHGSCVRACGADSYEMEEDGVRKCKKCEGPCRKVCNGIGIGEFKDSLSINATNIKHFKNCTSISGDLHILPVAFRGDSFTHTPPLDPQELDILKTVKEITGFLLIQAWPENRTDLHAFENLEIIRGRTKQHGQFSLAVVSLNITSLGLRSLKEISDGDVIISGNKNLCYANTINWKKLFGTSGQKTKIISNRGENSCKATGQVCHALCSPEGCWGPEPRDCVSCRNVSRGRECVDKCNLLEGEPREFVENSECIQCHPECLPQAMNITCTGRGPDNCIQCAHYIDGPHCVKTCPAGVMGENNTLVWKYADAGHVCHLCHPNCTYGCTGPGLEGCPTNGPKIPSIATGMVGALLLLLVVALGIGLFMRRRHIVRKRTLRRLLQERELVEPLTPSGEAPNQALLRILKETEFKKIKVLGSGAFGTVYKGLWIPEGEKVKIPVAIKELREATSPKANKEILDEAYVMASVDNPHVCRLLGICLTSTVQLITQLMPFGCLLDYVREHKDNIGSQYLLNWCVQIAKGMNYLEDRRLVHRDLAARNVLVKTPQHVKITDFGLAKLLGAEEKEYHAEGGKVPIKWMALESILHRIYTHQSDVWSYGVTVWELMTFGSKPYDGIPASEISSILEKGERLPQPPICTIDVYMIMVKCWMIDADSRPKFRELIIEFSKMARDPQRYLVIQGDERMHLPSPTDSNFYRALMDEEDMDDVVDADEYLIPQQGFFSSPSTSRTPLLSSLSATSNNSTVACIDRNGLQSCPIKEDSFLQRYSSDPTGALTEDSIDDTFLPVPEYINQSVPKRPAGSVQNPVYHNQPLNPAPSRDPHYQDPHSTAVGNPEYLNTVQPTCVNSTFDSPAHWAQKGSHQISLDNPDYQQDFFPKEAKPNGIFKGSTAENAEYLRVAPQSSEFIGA", "test": "EGFR immunoprecipitation and anti-phosphotyrosine immunoblot in DU145 cells", "format": "cell-based", "conditions": "1 μM HF, 20 min", "protocol": "as §1"}, "[6]": {"conditions": "HF at 1 μM, serum-starved DU145 cells"}}, "data": [{"molecule": "CC(C)(O)C(=O)Nc1ccc([N+](=O)[O-])c(C(F)(F)F)c1", "note": "[HF, hydroxyflutamide]", "values": [{"measurement": "activation of MAP kinase as compared to EGF activation", "setting": "[1]", "result": "relatively weak"}, {"measurement": "total MAP kinase (ERK1/2) protein expression", "setting": "[1]; DU145 cells", "result": "no influence"}, {"measurement": "time to activate MAP kinase", "setting": "[1]; [6]", "result": "≤ 15", "unit": "min"}, {"measurement": "time to reach maximum MAP kinase activation", "setting": "[1]; [6]", "result": 30, "unit": "min"}, {"measurement": "MAP kinase activation", "setting": "[2]", "result": "activates MAP kinase"}, {"measurement": "MAP kinase activation", "setting": "[3]", "result": "not"}, {"measurement": "Raf detected in the Ras immunocomplex", "setting": "[4]", "result": "detected"}, {"measurement": "autophosphorylation of EGFR", "setting": "[5]", "result": "causes the autophosphorylation of EGFR"}]}]}
